Laboratory results: US6737383B1, “Herbicidal oxadiazolidines” (priority 1999, dated 2004)

Legend:
velvetleaf = assay: Test B pre/postemergence velvetleaf; assay type: in vivo, Abutilon theophrasti
Procedure, shortened: (§1)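 Herbicidal effect was estimated by eye on a ten-point control scale after plants spent twelve to sixteen days in a greenhouse following soil or foliar treatment. Foliar sprays targeted plants at one to four leaves; all doses were formulated in a non-phytotoxic solvent with surfactant.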

pigweed = assay: Test B pre/postemergence pigweed; assay type: in vivo, Amaranthus retroflexus
Procedure, shortened: as §1

cocklebur = assay: Test B pre/postemergence cocklebur; assay type: in vivo, Xanthium strumarium
Procedure, shortened: as §1

rape = assay: Test B pre/postemergence rape; assay type: in vivo, Brassica napus
Procedure, shortened: as §1

wheat = assay: Test B pre/postemergence wheat; assay type: in vivo, Triticum aestivum
Procedure, shortened: as §1

purple nutsedge = assay: Test B pre/postemergence purple nutsedge; assay type: in vivo, Cyperus rotundus
Procedure, shortened: as §1

blackgrass = assay: Test B pre/postemergence blackgrass; assay type: in vivo, Alopecurus myosuroides
Procedure, shortened: as §1

surinam grass = assay: Test B pre/postemergence surinam grass; assay type: in vivo, Brachiaria decumbens
Procedure, shortened: as §1

soybean = assay: Test B pre/postemergence soybean; assay type: in vivo, Glycine max
Procedure, shortened: as §1

bamyardgrass = assay: Test B flood test barnyardgrass; assay type: in vivo, Echinochloa crus-galli
Procedure, shortened: (§2)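 Each value is a visual injury score relative to controls, with 10 meaning complete control and 0 no effect. Evaluation took place twelve to sixteen days after the 2-leaf-stage plants were treated and kept in the greenhouse.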

bedstraw = assay: Test B pre/postemergence bedstraw; assay type: in vivo, Galium aparine; details: Postemergence; for Plant response rating, Bedstraw: scale 0 to 10, 0 is no effect, 10 is complete control; for Bedstraw plant response rating: scale of 0 to 10 where 0 is no effect and 10 is complete control
Procedure, shortened: as §1

giant foxtail = assay: Test B pre/postemergence giant foxtail; assay type: in vivo, Setaria faberii
Procedure, shortened: as §1

smallflower flatsedge = assay: Test B flood test smallflower flatsedge; assay type: in vivo, Cyperus difformis
Procedure, shortened: as §2

rice = assay: Test B flood test rice; assay type: in vivo, Oryza sativa
Procedure, shortened: as §2

duck salad = assay: Test B flood test duck salad; assay type: in vivo, Heteranthera limosa
Procedure, shortened: as §2

corn = assay: Test B pre/postemergence corn; assay type: in vivo, Zea mays
Procedure, shortened: as §1

morningglory = assay: Test B pre/postemergence morningglory; assay type: in vivo, Ipomoea hederacea
Procedure, shortened: as §1

sugar beet = assay: Test B pre/postemergence sugar beet; assay type: in vivo, Beta vulgaris
Procedure, shortened: as §1

wild oat = assay: Test B pre/postemergence wild oat; assay type: in vivo, Avena fatua
Procedure, shortened: as §1

crabgrass = assay: Test B pre/postemergence crabgrass; assay type: in vivo, Digitaria sanguinalis
Procedure, shortened: as §1

[1] = Postemergence, Rate 250 g/ha, scale 0 to 10, 0 is no effect, 10 is complete control
[2] = Postemergence, Rate 500 g/ha, scale of 0 to 10 where 0 is no effect and 10 is complete control
[3] = Preemergence, Rate 62 g/ha, scale 0 to 10 (0 no effect, 10 complete control)
[4] = Preemergence, Rate 125 g/ha, scale of 0 to 10 where 0 is no effect and 10 is complete control
[5] = Preemergence, Rate 250 g/ha, scale 0 to 10, 0 is no effect, 10 is complete control
[6] = Preemergence, Rate 500 g/ha, scale 0 to 10, 0 is no effect, 10 is complete control
[7] = Postemergence, Rate 125 g/ha, scale 0 to 10, 0 is no effect, 10 is complete control
[8] = Rate 62 g/ha, Postemergence, scale of 0 to 10 where 0 is no effect and 10 is complete control
[9] = Preemergence, Rate 250 g/ha, scale of 0 to 10 where 0 is no effect and 10 is complete control
[10] = Rate 62 g/ha, flood test species, Pre-emergence, visual evaluation after twelve to sixteen days
[11] = Rate 125 g/ha, under heading Pre-emergence, flood test species, visual evaluation after twelve to sixteen days
[12] = Rate 250 g/ha, Pre-emergence, flood-test species, scale 0 to 10, 0 is no effect, 10 is complete control
[13] = Rate 500 g/ha, Pre-emergence, flood test species, scale 0 to 10 (0 no effect, 10 complete control)

## CC(C)N(C(=O)n1oc(=O)n(C)c1=O)c1ccccc1 [Compound 409]
velvetleaf; [1]
  Plant response rating, Velvetleaf: 0
velvetleaf; [2]
  Velvetleaf plant response rating: 0
velvetleaf; [3]
  Plant response rating, Velvetleaf: 2
velvetleaf; [4]
  Plant response rating, Velvetleaf: 5
velvetleaf; [5]
  Velvetleaf plant response rating: 6
velvetleaf; [6]
  Velvetleaf plant response rating: 8
pigweed; [1]
  Plant response rating, Redroot pigweed: 4
pigweed; [2]
  Redroot pigweed plant response rating: 5
pigweed; [3]
  Plant response rating, Redroot pigweed: 7
pigweed; [4]
  Plant response rating, Redroot pigweed: 8
pigweed; [5]
  Redroot pigweed plant response rating: 8
pigweed; [6]
  Redroot pigweed plant response rating: 10
cocklebur; [7]
  Plant response rating, Cocklebur: 0
cocklebur; [2]
  Cocklebur plant response rating: 1
cocklebur; [3]
  Plant response rating, Cocklebur: 0
cocklebur; [4]
  Plant response rating, Cocklebur: 0
cocklebur; [6]
  Cocklebur plant response rating: 2
cocklebur; [8]
  Cocklebur plant response rating: 0
rape; [1]
  Plant response rating, Rape: 3
rape; [3]
  Plant response rating, Rape: 0
rape; [4]
  Plant response rating, Rape: 0
rape; [5]
  Rape plant response rating: 4
rape; [6]
  Rape plant response rating: 6
wheat; [2]
  Wheat plant response rating: 7
wheat; [3]
  Plant response rating, Wheat: 4
wheat; [4]
  Plant response rating, Wheat: 8
wheat; [5]
  Wheat plant response rating: 9
wheat; [6]
  Wheat plant response rating: 10
Purple nutsedge; [1]
  Plant response rating, Nutsedge: 0
Purple nutsedge; [2]
  Nutsedge plant response rating: 0
Purple nutsedge; [5]
  Nutsedge plant response rating: 8
Purple nutsedge; [6]
  Nutsedge plant response rating: 8
blackgrass; [7]
  Plant response rating, Blackgrass: 8
blackgrass; [1]
  Plant response rating, Blackgrass: 9
blackgrass; [2]
  Blackgrass plant response rating: 10
blackgrass; [3]
  Plant response rating, Blackgrass: 4
blackgrass; [4]
  Plant response rating, Blackgrass: 7
blackgrass; [9]
  Blackgrass plant response rating: 10
blackgrass; [6]
  Blackgrass plant response rating: 10
blackgrass; [8]
  Blackgrass plant response rating: 6
Surinam grass; [7]
  Plant response rating, B. signalgrass: 5
Surinam grass; [1]
  Plant response rating, B. signalgrass: 8
Surinam grass; [2]
  B. signalgrass plant response rating: 9
Surinam grass; [3]
  Plant response rating, B. signalgrass: 0
Surinam grass; [4]
  Plant response rating, B. signalgrass: 4
Surinam grass; [9]
  B. signalgrass plant response rating: 7
Surinam grass; Preemergence, Rate 500 g/ha, scale of 0 to 10 where 0 is no effect and 10 is complete control
  B. signalgrass plant response rating: 9
Surinam grass; [8]
  B. signalgrass plant response rating: 3
soybean; [1]
  Plant response rating, Soybean: 5
soybean; [2]
  Soybean plant response rating: 5
soybean; [3]
  Plant response rating, Soybean: 0
soybean; [4]
  Plant response rating, Soybean: 0
soybean; [5]
  Soybean plant response rating: 1
soybean; [6]
  Soybean plant response rating: 8
bamyardgrass; [10]
  Plant response rating, Barnyardgrass (0 to 10 scale, 0 is no effect, 10 is complete control): 1
bamyardgrass; [11]
  Barnyardgrass plant response rating (0 to 10 scale, 0 is no effect, 10 is complete control): 2
bamyardgrass; [12]
  Barnyardgrass plant response rating: 3
bamyardgrass; [13]
  Barnyardgrass plant response rating: 3
bedstraw; Rate 125 g/ha
  Plant response rating, Bedstraw: 2
bedstraw; Rate 250 g/ha
  Plant response rating, Bedstraw: 2
bedstraw; Rate 500 g/ha
  Bedstraw plant response rating: 5
bedstraw; Rate 62 g/ha
  Bedstraw plant response rating: 0
Giant foxtail; [7]
  Plant response rating, Giant foxtail: 8
Giant foxtail; [1]
  Plant response rating, Giant foxtail: 9
Giant foxtail; [2]
  Giant foxtail plant response rating: 9
Giant foxtail; [3]
  Plant response rating, Giant foxtail: 9
Giant foxtail; [4]
  Plant response rating, Giant foxtail: 10
Giant foxtail; [5]
  Giant foxtail plant response rating: 10
Giant foxtail; [6]
  Giant foxtail plant response rating: 10
Giant foxtail; [8]
  Giant foxtail plant response rating: 8
Smallflower flatsedge; [10]
  Plant response rating, S. Flatsedge (0 to 10 scale, 0 is no effect, 10 is complete control): 0
Smallflower flatsedge; [11]
  S. Flatsedge plant response rating (0 to 10 scale, 0 is no effect, 10 is complete control): 0
Smallflower flatsedge; [12]
  S. Flatsedge plant response rating: 2
Smallflower flatsedge; [13]
  S. Flatsedge plant response rating: 2
rice; [10]
  Plant response rating, Rice (0 to 10 scale, 0 is no effect, 10 is complete control): 0
rice; [11]
  Rice plant response rating (0 to 10 scale, 0 is no effect, 10 is complete control): 0
rice; [12]
  Rice plant response rating: 0
rice; [13]
  Rice plant response rating: 0
Duck salad; [10]
  Plant response rating, Ducksalad (0 to 10 scale, 0 is no effect, 10 is complete control): 0
Duck salad; [11]
  Ducksalad plant response rating (0 to 10 scale, 0 is no effect, 10 is complete control): 0
Duck salad; [12]
  Ducksalad plant response rating: 0
Duck salad; [13]
  Ducksalad plant response rating: 0
corn; [7]
  Plant response rating, Corn: 5
corn; [1]
  Plant response rating, Corn: 7
corn; [2]
  Corn plant response rating: 7
corn; [3]
  Plant response rating, Corn: 7
corn; [4]
  Plant response rating, Corn: 8
corn; [5]
  Corn plant response rating: 8
corn; [6]
  Corn plant response rating: 10
corn; [8]
  Corn plant response rating: 0
morningglory; [1]
  Plant response rating, Morningglory: 9
morningglory; [2]
  Morningglory plant response rating: 10
morningglory; [3]
  Plant response rating, Morningglory: 0
morningglory; [4]
  Plant response rating, Morningglory: 2
morningglory; [5]
  Morningglory plant response rating: 5
morningglory; [6]
  Morningglory plant response rating: 5
Sugar beet; [1]
  Plant response rating, Sugarbeets: 0
Sugar beet; [2]
  Sugarbeets plant response rating: 0
Sugar beet; [3]
  Plant response rating, Sugarbeets: 2
Sugar beet; [4]
  Plant response rating, Sugarbeets: 7
Sugar beet; [5]
  Sugarbeets plant response rating: 8
Sugar beet; [6]
  Sugarbeets plant response rating: 9
Wild oat; [2]
  Wild oats plant response rating: 4
Wild oat; [3]
  Plant response rating, Wild oats: 0
Wild oat; [4]
  Plant response rating, Wild oats: 5
Wild oat; [5]
  Wild oats plant response rating: 7
Wild oat; [6]
  Wild oats plant response rating: 8
crabgrass; [7]
  Plant response rating, Crabgrass: 9
crabgrass; [1]
  Plant response rating, Crabgrass: 9
crabgrass; [2]
  Crabgrass plant response rating: 9
crabgrass; [3]
  Plant response rating, Crabgrass: 9
crabgrass; [4]
  Plant response rating, Crabgrass: 9
crabgrass; [5]
  Crabgrass plant response rating: 10
crabgrass; [6]
  Crabgrass plant response rating: 10
crabgrass; [8]
  Crabgrass plant response rating: 6
